# Experimental data taken from patent US11578110B2, “Compounds for inducing tissue formation and uses thereof” (HISTIDE AG, priority 2015, dated 2023).
# No end group written: not given here.
# System: hMSCs
# Experiment: STRO-1 stemness marker expression in hMSCs (immunostaining, ImageJ quantification)
# Type: cell-based, Human
# Settings: SEQ ID NO: 1 to 49 tested in combination with a bioactive carrier (titanium, ceramics, PEEK, hydrogel, etc.)
# Procedure: The cells were first fixed for 20 min with 4% paraformaldehyde/PBS at 4° C. After fixation, the cells were permeabilized in PBS containing 1% Triton X-100 for 15 min. Runx2, Osterix, Stro-1, Vinculin, Phalloidin, Osteopontin, Sox2, Sox9 antibodies were visualized by treating the cells with 1% (v/v) specific monoclonal antibodies for 1 hour at 37° C. Then the samples were incubated with Alexa fluor® 568 or 647 (F(ab′)2 fragment of IgG(H+L)) during 30 min at room temperature. The cell nuclei were counterstained in 20 ng/mL DAPI for 10 min at room temperature.
# For this type of quantification the freeware image analysis ImageJ® software was used. The raw image was first converted to an 8-bit file, and then the unsharp mask feature was used (settings 1:0.2) to remove the image background (rolling ball radius 10). After smoothing, the resulting image, which appears similar to the original photomicrograph but with minimal background, was then converted to a binary image by setting a threshold. Threshold values were determined empirically by selecting a setting, which gave the most accurate binary image for a subset of randomly selected photomicrographs. The cell area was determined by manual delineation on raw fluorescent images. Total contact area and mean contact area per cell were calculated by “analyse particles” in ImageJ®. A minimum of 30 cells per condition were analyzed. Stro-1, CD-34+, and CD-105 expressions were determined using this procedure.
# hMSCs were cultured on conventional cell culture plastic plates with or without the presence in the cell culture media of different GFR-binding compounds as defined hereins (SEQ ID NO: 50 to 104) in solution. […] This was probed by Stro-1 immunostaining after cell fixation as described in the Methods section. The quantification of Stro-1 positive contact numbers and areas was performed as described in the Methods section. A minimum of 30 cells per condition were analyzed.
# RMSD values are always calculated for a GFR-binding peptide sequence exempt from any bioactive-carrier-affinity-containing group as defined herein (e.g. cysteine, WWFWG, GTPGP, etc. . . . ). When needed i.e. when attachment to a bioactive carrier is contemplated, the bioactive-carrier-affinity-containing group is then present in the GFR-binding compound when it is biologically tested. Using the method detailed in the description, the RMSD of 57 previously reported peptide sequences have been determined (Table 6) and correlated with the expression of STRO-1 after grafted on a PET surface via a procedure as already described above. […] One should note that it is commonly admitted that the expression of STRO-1 in a cell is indicative of a cell that is in a substantially non-differentiated state and the decrease of its expression of at least about 20% is indicative of a cell that has started a processes of differentiation but which may not result in the differentiation of the cell. A decrease of more than 50% would be indicative of the presence of a significant shift towards a differentiated state. A decrease of more than 70% would be indicative of the presence of a very important shift towards a differentiated state. A sustained decrease (e.g. for at least 96 h) of more than 50% or 70% would be indicative of the presence of an even more important shift towards a differentiated state.
# Likewise, using the method detailed in the description, the RMSD of 87 GFR-binding peptide sequence representatives of the invention have been determined (Table 7) and correlated with the expression of STRO-1 after grafted on a PET surface via a procedure as already described above. SEQ ID NO: 1 to 49 were tested in combination with a bioactive carrier as defined above in the Examples Section (i.e. titanium, ceramics, PEEK, hydrogel, etc. . . . ), whereas SEQ ID NO: 1143 to 1180 were tested in solution.
row,Sequence,STRO-1 expression
1,GTPGPVPTEESAISMLYL (GFR-binding peptide) [SEQ ID NO: 28],22%
2,VPAGQSPISILYI (CVPAGQSPISILYI; GFR-binding peptide) [SEQ ID NO: 46],20%
3,NDEGLESAPTGQNAISVLYF [SEQ ID NO: 5],27%
4,GTPGPVPQELEPLTILYY (GFR-binding peptide) [SEQ ID NO: 24],16%
5,ASASPSSVSQDLSAISMLYL [SEQ ID NO: 15],13%
6,GTPGPVPTELSPISVLYK (GFR-binding peptide) [SEQ ID NO: 25],17%
7,STPPTSSVPTRLSAISMLYL [SEQ ID NO: 3],19%
8,NDEGLESVPTGQNAISVLYF [SEQ ID NO: 17],31%
9,GSAGPSSVPTKMSAISMLYL [SEQ ID NO: 1],21%
10,HVTKPTSVPEKLSSLSILFF [SEQ ID NO: 9],29%
11,GTPGPPSSVPTKLSPISVLYK (GTPGPPXXVPTKLSPISVLYK; GFR-binding peptide; MOD_RES (7)..(8): Xaa is C or S) [SEQ ID NO: 30],26%

# Same assay, conditions: SEQ ID NO: 1 to 49 tested in combination with a bioactive carrier (titanium, ceramics, PEEK, hydrogel, etc.), listed as 45
row,Sequence,STRO-1 expression
1,NDEGLESVPAEESPISILYI [SEQ ID NO: 45],16%

# Same assay, conditions: SEQ ID NO: 1 to 49 tested in combination with a bioactive carrier (titanium, ceramics, PEEK, hydrogel, etc.), listed as 47
row,Sequence,STRO-1 expression
1,NDEGLESVPAEESPISILYI [SEQ ID NO: 47],18%

# Same assay, conditions: SEQ ID NO: 1143 to 1180 tested in solution
row,Sequence,STRO-1 expression
1,GIPEPSSAPVDLKPLSTLYV (GFR-binding peptide) [SEQ ID NO: 1148],11%
2,KIPKASSVSQQLEPISTLYL (GFR-binding peptide) [SEQ ID NO: 1165],17%
3,RVPSTSSAPTKMNAISMLYF (GFR-binding peptide) [SEQ ID NO: 1145],23%
4,GIPEPSSAPVDMRPVQIRKI (GFR-binding peptide) [SEQ ID NO: 1180],30%
5,AASKASSVPQEEEPLPMVYY (GFR-binding peptide) [SEQ ID NO: 1149],23%
6,KIPKASSVPTKMKPLSVLYV (GFR-binding peptide) [SEQ ID NO: 1168],21%
7,AASKASSSRVELRSVKIAKV (GFR-binding peptide) [SEQ ID NO: 1152],33%
8,GIPEPSSAPVEEEPLTTLYY (GFR-binding peptide) [SEQ ID NO: 1174],21%
9,RVPSTSSTQVKMSAISMLYL (GFR-binding peptide) [SEQ ID NO: 1155],17%
10,STPPTSSAPVGQSPISMLYI (GFR-binding peptide) [SEQ ID NO: 1162],19%
11,RVPSTSSVPEKMEPLTMLYY (GFR-binding peptide) [SEQ ID NO: 1173],18%
12,STPPTSSVPTEVSPINTLYF (GFR-binding peptide) [SEQ ID NO: 1166],19%
13,STPPTSSVPTELSPISTLYK (GFR-binding peptide) [SEQ ID NO: 1147],21%
14,GIPEPSSAPTELSATSILYY (GFR-binding peptide) [SEQ ID NO: 1146],20%
15,AASKASSVPQRLRSVKVAKV (GFR-binding peptide) [SEQ ID NO: 1177],31%

# Same assay, conditions: grafted on a PET surface
row,Sequence,STRO-1 expression
1,"MSRVLFEPLTFLQTGSGLPDEKTLG (Previously reported sequence) [SEQ ID NO: 1096, reference compound]",94%
2,"TPTVVSATSL (Previously reported sequence) [SEQ ID NO: 1111, reference compound]",98%
3,"NPGASASPCCVSQDLEPLPIL (Previously reported sequence) [SEQ ID NO: 1098, reference compound]",86%
4,"CIPKPSSAPTELSAISMLYL (Previously reported sequence) [SEQ ID NO: 1134, reference compound]",83%
5,"MAAQDEWRDAITLTMGRDLKKVPQHLNAISVIDPVT (Previously reported sequence) [SEQ ID NO: 1124, reference compound]",83%
6,"LGIAAIIFLQQVPAAFSATSPPG (Previously reported sequence) [SEQ ID NO: 1113, reference compound]",97%
7,"TKPLSSLLFPNWNTTTTPTPPRP (Previously reported sequence) [SEQ ID NO: 1101, reference compound]",91%
8,"TPTYSRPVQKAELTR (Previously reported sequence) [SEQ ID NO: 1091, reference compound]",97%
9,"NEVLRFCGIQVPEGDEPLT (Previously reported sequence) [SEQ ID NO: 1094, reference compound]",98%
10,"TLXPIVSSXNPSPISFRXIKILLHDLEVVPFPKSRVR (not fully specified; X: residue not identified in the source; ends and bridges not checked) [SEQ ID NO: 1107, reference compound]",84%
11,"VGAAWWLREQGSPINTLAVPA (Previously reported sequence) [SEQ ID NO: 1103, reference compound]",88%
12,"KPCCAPTQLSAISVLYFDDSSNVILKKYRNMVVRACGCR (Previously reported sequence) [SEQ ID NO: 1141, reference compound]",80%
13,"FDSRVLKSAISFKENIIF (Previously reported sequence) [SEQ ID NO: 1128, reference compound]",89%
14,"KGSEYEKLVVSGITQVYQSSLSWHGCKSCCEVQVXNLXILIRLYDVHYYN (not fully specified; X: residue not identified in the source; ends and bridges not checked) [SEQ ID NO: 1122, reference compound]",88%
15,"VPTKLSPISILYLDKGVVTYKFKYEGMSVAECGCR (Previously reported sequence) [SEQ ID NO: 1108, reference compound]",80%
16,"KPCCAPTELSAISVLYFDDSSNVILKKYRNMVVRACGCR (Previously reported sequence) [SEQ ID NO: 1142, reference compound]",83%
17,"CKIPKPSSAPTELSAISMLYL (Previously reported sequence) [SEQ ID NO: 1135, reference compound]",78%
18,"TCCVPELSAISMLYLDEN (Previously reported sequence) [SEQ ID NO: 1131, reference compound]",84%
19,"ENVNLKKYRNMIVKSCGCH (Previously reported sequence) [SEQ ID NO: 1090, reference compound]",97%
20,"VHLLKPHAVPKACCAPTKLSATSVLYYDSSNNVILRKHRNMVVRACGCH (Previously reported sequence) [SEQ ID NO: 1118, reference compound]",88%
21,"APTQLSAISVL (Previously reported sequence) [SEQ ID NO: 1127, reference compound]",93%
22,"SVPAVCSATSATGPYSTATNTVVVPSIVATGGTT [SEQ ID NO: 1115, reference compound]",92%
23,"LMDLARMPSCLRGERAVPQDTTGYFTWSSNITPLNFIF (Previously reported sequence) [SEQ ID NO: 1093, reference compound]",92%
24,"MRTESTPTTASAISYECLWSPPSNEAAKLHFDS (Previously reported sequence) [SEQ ID NO: 1137, reference compound]",94%
